Test: Drug loading and stability by LC-DAD-QTOF / LC-UV
Assay type: physicochemical
Conditions: high concentrations of ascorbic acid
Description: The sizes and size distributions were measured using dynamic light scattering (Malvern Zetasizer and Nanoparticles Tracking Analyzer (NTA)) in phosphate buffer (pH 7). Dry weight was determined by drying three sample aliquots at 50° C. overnight. Drug loading and stability was determined weighing/pipetting three sample aliquots, dissolution in DMSO, and dilution for LC-DAD-QTOF analysis. The concentration of compound 1A was determined using three samples of amphotericin B USP as a standard. The LC-QTOF method was: • Mobile phases: 0.1% formic acid [A] and acetonitrile [B] • HPLC system: Agilent 1290 HPLC system with a 1290 DAD connected to a QTOF • Column: Polaris 3 C18, 150×2 mm, 3 μm (Varian) • Column thermostat: 30° C. • Flow rate: 0.3 ml/min • Injection volume: 2 μL • Wavelength: 385 nm for measuring compound 1A/AMB, Scan 190-600 nm • Software: MassHunter Qualitative analysis B.0.600 • Post time: 5 min • QTOF was operated in negative electrospray mode (ESI−) • The HPLC gradient is shown in Table 1.

Compound: C[C@@H]1[C@H](O)[C@@H](C)/C=C/C=C/C=C/C=C/C=C/C=C/C=C/[C@H](O[C@@H]2O[C@H](C)[C@@H](O)[C@H](N)[C@@H]2O)C[C@@H]2O[C@](O)(C[C@@H](O)[C@H](O)CC[C@@H](O)C[C@@H](O)C[C@@H](O)CC(=O)O[C@H]1C)C[C@H](O)[C@H]2C [Compound 1A]
- stability in solution: chemically dehydrated
